According to US12521342B2, “Fast disintegrating tablet” (CUBOPHARM PTY LTD, priority 2017, dated 2026):
Read-outs that look alike come from different tables or passages of the source.

Key:
[1] = cited from earlier work
[2] = pig, pH 7.4

SMILES | logP [1] | Total rosuvastatin absorbed per minute ([2]; 0.4 mg/1.5 ml) [ng/mL] | Total rosuvastatin absorbed per minute ([2]; 0.8 mg/1.5 ml) [ng/mL]
CNCC(O)c1ccc(O)c(O)c1 (stereo not drawn) [Adrenaline] | −0.5 to −1.2 | – | –
CC(C)c1nc(N(C)S(C)(=O)=O)nc(-c2ccc(F)cc2)c1/C=C/[C@@H](O)C[C@@H](O)CC(=O)O [Rosuvastatin] | – | 0.6 | 0.3
